From patent US5447916A, “Peptoid alpha-1 adrenergic receptor ligands” (Chiron Corporation, priority 1993, dated 1995)

System: α1-adrenergic receptors
Experiment: 3H-Prazosin binding assay on rat forebrain membranes
Settings: for Percent Inhibition: Inhibition at 100 nM (100 nM receptor concentration as printed), 3H-Prazosin; for IC50 / Ki: 0.5 nM 3H-Prazosin; for Ki: 1 hr at room temperature
Experimental: Preparation of Rat Forebrain Membranes:
Rat brains were purchased from Animal Technologies, Tyler, Tex., and shipped on wet ice within 24 hours after being harvested. The forebrains were dissected and homogenized with a Tissue Tearor in 50 mM Tris, pH 7.5, containing 20 mM NaCl, 5 mM EGTA, 2 mM MgCl2, 21 μg/mL aprotinin, 0.5 mg/L leupeptin, 0.7 mg/L pepstatin, 0.2 mM PMSF. Each brain is homogenized in approximately 5 mL of this buffer. The homogenate is then spun at 1000 RPM (75×g) in a Sorval RC-5B centrifuge (SS-34 rotor) for 10 min. The pellets are discarded and the supernatants then respun at 17,000 RPM (22,500×g) for 15 min. The pellets were then resuspended in the same buffer as above containing 5 mM EDTA and no MgCl2 (1 brain/mL). Membranes were stored in 1 mL aliquots at -70° C.
Thawed membranes were dispersed into a homogenous solution by passing them through a 22 gauge needle 5 times. To initiate the assay, 50 μL of membrane were dispensed into a plastic 12×75 mm tube containing 1 mL of 50 mM Tris, pH 7.5, 0.5 nM ^3 H-Prazosin (New England Nuclear), and the compounds to be tested. Nonspecific binding was determined as ^3 H-Prazosin bound in the presence of 5 μM unlabeled prazosin. Incubation was for 1 hr at room temperature. Unbound radioactivity was removed by rinsing the membranes on Whatman GF/B glass fiber filters. Each filter was washed 3 times with 3 mL of 50 mM Tris, pH 7.5, 4° C. Filters were soaked overnight in 5 mL of Beckman ReadySafe scintillation cocktail then counted for one minute in a Wallac 1409 liquid scintillation counter.

| Compound | Percent Inhibition | IC50 | Ki |
| --- | --- | --- | --- |
| Noco-Nbiph-Nhphe [Noco--Nbiph--Nhphe] | 23.6% |  |  |
| Nhtyr--Nbiph--Nbhm |  | 1400 nM | 313 nM |
| Bz-Nhphe-Nbiph-Nhphe [Bz--Nhphe--Nbiph--Nhphe] | 24.8% |  |  |
| NC(=O)CN(CCc1ccccc1)C(=O)CN(C(=O)CNCCc1ccc(O)cc1)c1ccc(-c2ccccc2)cc1 [Nhtyr--Nbiph--Nhphe, Nhtyr-Nbiph-Nhphe] |  | 19 nM | 7 nM |

Other lines, results leading:

| Percent Inhibition | IC50 | Ki | Compound |
| --- | --- | --- | --- |
| 20.3% |  |  | Nhtyr- Npbiph-Nhphe [Nhtyr--Npbiph--Nhphe] |
|  | 490 nM | 140 nM | Nhtyr-Npop-Nhphe [Nhtyr--Npop--Nhphe] |
| 21.2% |  |  | Nhtyr-Nbiph-Nmhphe [Nhtyr--Nbiph--Nmhphe] |
| 53.9% |  |  | Nzhphe-Nbiph-Nhphe [Nzhphe--Nbiph--Nhphe] |
| 48.3% |  |  | Nhtyr-Nbiph-Nphphe [Nhtyr--Nbiph--Nphphe] |
| 22.7% |  |  | Nphtyr-Nbiph-Nhphe [Nphtyr--Nbiph--Nhphe] |
